Results on one compound are retold here after the NIST ThermoML archive (doi:10.1016/j.jct.2017.01.006).

Numbers after ± are expanded uncertainties.

The nature of the series: Molar enthalpy of transition or fusion. To be noted: Crystal; DSC.

For `Nc1ccc(N)c([N+](=O)[O-])c1` [2-nitro-1,4-benzenediamine], the “Molar enthalpy of transition or fusion” value was 3.92 ± 0.21 kcal/mol.
